From ChEMBL document CHEMBL4177526, “Discovery and structure activity relationship of the first potent cryptosporidium FIKK kinase inhibitor” (Bioorg Med Chem, 2017)

Key:
[1] = biological target: Dual specificity testis-specific protein kinase 1 (Homo sapiens) (UniProt Q15569); test: Inhibition of human TESK1 (1 to 345 residues) assessed as residual activity at 500 nM in presence of 33P-ATP by filter binding assay relative to control
[2] = biological target: Ribosomal protein S6 kinase alpha-5 (Homo sapiens) (UniProt O75582); test: Inhibition of human MSK1 (2 to 802 residues) assessed as residual activity at 500 nM in presence of 33P-ATP by filter binding assay relative to control
Ribosomal protein S6 kinase alpha-5 (Homo sapiens), sequence (O75582 whole entry, looked up, the tested form may be a part): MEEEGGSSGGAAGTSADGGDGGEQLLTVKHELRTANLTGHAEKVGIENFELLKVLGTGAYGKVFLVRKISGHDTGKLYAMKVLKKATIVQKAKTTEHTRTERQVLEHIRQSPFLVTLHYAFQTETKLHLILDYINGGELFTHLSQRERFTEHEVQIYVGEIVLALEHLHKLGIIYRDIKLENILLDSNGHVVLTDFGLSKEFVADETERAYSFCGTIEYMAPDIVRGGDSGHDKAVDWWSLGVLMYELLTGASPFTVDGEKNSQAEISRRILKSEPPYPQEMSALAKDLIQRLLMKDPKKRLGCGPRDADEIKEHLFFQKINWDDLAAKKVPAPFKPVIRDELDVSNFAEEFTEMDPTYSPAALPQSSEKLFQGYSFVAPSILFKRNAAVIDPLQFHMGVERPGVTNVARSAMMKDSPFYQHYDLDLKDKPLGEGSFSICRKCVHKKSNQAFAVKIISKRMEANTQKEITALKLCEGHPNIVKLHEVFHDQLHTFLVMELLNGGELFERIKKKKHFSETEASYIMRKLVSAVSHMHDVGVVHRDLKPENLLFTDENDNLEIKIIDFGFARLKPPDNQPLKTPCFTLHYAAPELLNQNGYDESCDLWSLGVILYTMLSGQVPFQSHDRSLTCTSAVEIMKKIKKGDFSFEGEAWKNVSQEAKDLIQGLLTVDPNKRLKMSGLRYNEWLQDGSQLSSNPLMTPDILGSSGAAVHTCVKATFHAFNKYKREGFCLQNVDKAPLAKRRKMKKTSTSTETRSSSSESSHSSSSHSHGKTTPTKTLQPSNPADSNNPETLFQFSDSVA

[3] = biological target: Protein kinase C gamma type (Homo sapiens) (UniProt P05129); test: Inhibition of human PKCgamma (1 to 697 residues) assessed as residual activity at 500 nM in presence of 33P-ATP by filter binding assay relative to control
[4] = biological target: Serine/threonine-protein kinase TAO1 (Homo sapiens) (UniProt Q7L7X3); test: Inhibition of human TAO1 (1 to 356 residues) assessed as residual activity at 500 nM in presence of 33P-ATP by filter binding assay relative to control
[5] = biological target: Serine/threonine-protein kinase SIK2 (Homo sapiens) (UniProt Q9H0K1); test: Inhibition of human SIK2 (2 to 926 residues) assessed as residual activity at 500 nM in presence of 33P-ATP by filter binding assay relative to control
[6] = biological target: Serine/threonine-protein kinase WNK1 (Homo sapiens) (UniProt Q9H4A3); test: Inhibition of human WNK1 (1 to 661 residues) assessed as residual activity at 500 nM in presence of 33P-ATP by filter binding assay relative to control
[7] = biological target: Homeodomain-interacting protein kinase 3 (Homo sapiens) (UniProt Q9H422); test: Inhibition of human HIPK3 (161 to 562 residues) assessed as residual activity at 500 nM in presence of 33P-ATP by filter binding assay relative to control
[8] = biological target: Insulin-like growth factor 1 receptor (Homo sapiens) (UniProt P08069); test: Inhibition of human IGF1R (954 to 1367 residues) assessed as residual activity at 500 nM in presence of 33P-ATP by filter binding assay relative to control
[9] = biological target: MAP/microtubule affinity-regulating kinase 4 (Homo sapiens) (UniProt Q96L34); test: Inhibition of human MARK4 (1 to 367 residues) assessed as residual activity at 500 nM in presence of 33P-ATP by filter binding assay relative to control
[10] = biological target: MAP kinase-activated protein kinase 3 (Homo sapiens) (UniProt Q16644); test: Inhibition of human MAPKAPK3 (2 to 382 residues) assessed as residual activity at 500 nM in presence of 33P-ATP by filter binding assay relative to control
MAP kinase-activated protein kinase 3 (Homo sapiens), sequence (Q16644 whole entry, looked up, the tested form may be a part): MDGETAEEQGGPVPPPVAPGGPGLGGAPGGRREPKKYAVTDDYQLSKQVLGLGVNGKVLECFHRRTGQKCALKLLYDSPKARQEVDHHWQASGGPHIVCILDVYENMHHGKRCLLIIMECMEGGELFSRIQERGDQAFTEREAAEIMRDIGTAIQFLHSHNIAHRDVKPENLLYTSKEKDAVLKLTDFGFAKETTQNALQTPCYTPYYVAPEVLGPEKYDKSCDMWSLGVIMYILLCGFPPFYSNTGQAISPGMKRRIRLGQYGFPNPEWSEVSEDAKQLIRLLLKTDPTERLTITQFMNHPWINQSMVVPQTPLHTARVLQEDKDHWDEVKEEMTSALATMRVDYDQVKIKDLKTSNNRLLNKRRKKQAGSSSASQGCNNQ

[11] = biological target: Dual specificity tyrosine-phosphorylation-regulated kinase 2 (Homo sapiens) (UniProt Q92630); test: Inhibition of human DYRK2 (3 to 528 residues) assessed as residual activity at 500 nM in presence of 33P-ATP by filter binding assay relative to control
[12] = biological target: Mitogen-activated protein kinase 14 (Homo sapiens) (UniProt Q16539); test: Inhibition of human p38alpha (1 to 360 residues) assessed as residual activity at 500 nM in presence of 33P-ATP by filter binding assay relative to control
[13] = biological target: Myosin light chain kinase, smooth muscle (Homo sapiens) (UniProt Q15746); test: Inhibition of human smMLCK (475 to 838 residues) assessed as residual activity at 500 nM in presence of 33P-ATP by filter binding assay relative to control
[14] = biological target: Serine/threonine-protein kinase ULK1 (Homo sapiens) (UniProt O75385); test: Inhibition of human ULK1 (2 to 1050 residues) assessed as residual activity at 500 nM in presence of 33P-ATP by filter binding assay relative to control
Serine/threonine-protein kinase ULK1 (Homo sapiens), sequence (O75385 whole entry, the tested form may be a part): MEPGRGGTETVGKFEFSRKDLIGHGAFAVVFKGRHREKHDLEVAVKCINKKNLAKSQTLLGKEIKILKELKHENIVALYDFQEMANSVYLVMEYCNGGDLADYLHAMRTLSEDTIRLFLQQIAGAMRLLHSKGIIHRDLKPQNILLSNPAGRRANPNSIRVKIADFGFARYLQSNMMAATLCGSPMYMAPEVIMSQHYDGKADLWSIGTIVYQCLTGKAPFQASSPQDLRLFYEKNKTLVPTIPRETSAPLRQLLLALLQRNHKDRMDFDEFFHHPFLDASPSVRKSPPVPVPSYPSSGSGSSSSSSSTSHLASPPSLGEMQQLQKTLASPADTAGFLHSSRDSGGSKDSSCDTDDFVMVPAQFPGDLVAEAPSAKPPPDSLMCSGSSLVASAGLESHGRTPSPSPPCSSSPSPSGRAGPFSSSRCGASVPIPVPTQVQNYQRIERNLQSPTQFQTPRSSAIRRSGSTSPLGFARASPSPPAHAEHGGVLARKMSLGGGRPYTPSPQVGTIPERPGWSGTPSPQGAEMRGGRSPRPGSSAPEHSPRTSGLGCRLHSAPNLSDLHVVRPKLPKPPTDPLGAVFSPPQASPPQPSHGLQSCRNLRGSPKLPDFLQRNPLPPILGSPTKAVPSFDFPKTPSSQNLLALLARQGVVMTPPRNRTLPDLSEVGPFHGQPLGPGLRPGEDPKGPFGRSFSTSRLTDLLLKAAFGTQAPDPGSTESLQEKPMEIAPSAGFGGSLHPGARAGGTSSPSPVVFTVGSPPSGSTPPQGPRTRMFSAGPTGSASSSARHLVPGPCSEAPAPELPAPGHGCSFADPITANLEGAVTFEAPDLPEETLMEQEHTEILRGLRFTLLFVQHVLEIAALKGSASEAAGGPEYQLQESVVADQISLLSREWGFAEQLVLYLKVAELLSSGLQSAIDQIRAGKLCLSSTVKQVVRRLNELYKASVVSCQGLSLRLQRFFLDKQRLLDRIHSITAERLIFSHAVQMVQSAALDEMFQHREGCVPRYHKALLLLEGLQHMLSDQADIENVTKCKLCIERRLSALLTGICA

[15] = biological target: Inhibitor of nuclear factor kappa-B kinase subunit beta (Homo sapiens) (UniProt O14920); test: Inhibition of human IKKbeta (1 to 736 residues) assessed as residual activity at 500 nM in presence of 33P-ATP by filter binding assay relative to control
Inhibitor of nuclear factor kappa-B kinase subunit beta (Homo sapiens), sequence (O14920 whole entry, the tested form may be a part): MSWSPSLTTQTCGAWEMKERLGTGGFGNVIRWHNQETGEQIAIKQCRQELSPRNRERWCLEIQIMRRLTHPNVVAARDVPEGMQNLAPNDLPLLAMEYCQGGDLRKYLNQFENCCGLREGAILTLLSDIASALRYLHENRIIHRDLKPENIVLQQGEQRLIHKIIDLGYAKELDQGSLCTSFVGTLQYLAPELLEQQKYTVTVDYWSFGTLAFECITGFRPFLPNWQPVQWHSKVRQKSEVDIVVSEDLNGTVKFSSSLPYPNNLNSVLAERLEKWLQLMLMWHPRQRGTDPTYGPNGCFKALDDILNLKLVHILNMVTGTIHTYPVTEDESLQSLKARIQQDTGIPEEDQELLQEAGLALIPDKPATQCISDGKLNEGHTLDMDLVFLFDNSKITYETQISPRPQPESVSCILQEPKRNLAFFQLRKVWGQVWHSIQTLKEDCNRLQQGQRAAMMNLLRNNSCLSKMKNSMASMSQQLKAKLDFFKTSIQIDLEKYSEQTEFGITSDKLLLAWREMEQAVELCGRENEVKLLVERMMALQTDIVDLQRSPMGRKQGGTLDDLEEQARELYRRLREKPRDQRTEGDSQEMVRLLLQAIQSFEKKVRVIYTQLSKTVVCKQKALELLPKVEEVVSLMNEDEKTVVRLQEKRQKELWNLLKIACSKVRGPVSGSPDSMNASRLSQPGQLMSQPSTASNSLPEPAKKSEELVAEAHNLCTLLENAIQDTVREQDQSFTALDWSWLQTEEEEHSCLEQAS

[16] = biological target: Mitogen-activated protein kinase 15 (Homo sapiens) (UniProt Q8TD08); test: Inhibition of human ERK8 (2 to 544 residues) assessed as residual activity at 500 nM in presence of 33P-ATP by filter binding assay relative to control
[17] = biological target: Dual specificity protein kinase CLK2 (Homo sapiens) (UniProt P49760); test: Inhibition of human CLK2 (138 to 499 residues) assessed as residual activity at 500 nM in presence of 33P-ATP by filter binding assay relative to control
Dual specificity protein kinase CLK2 (Homo sapiens), sequence (P49760 whole entry, looked up, the tested form may be a part): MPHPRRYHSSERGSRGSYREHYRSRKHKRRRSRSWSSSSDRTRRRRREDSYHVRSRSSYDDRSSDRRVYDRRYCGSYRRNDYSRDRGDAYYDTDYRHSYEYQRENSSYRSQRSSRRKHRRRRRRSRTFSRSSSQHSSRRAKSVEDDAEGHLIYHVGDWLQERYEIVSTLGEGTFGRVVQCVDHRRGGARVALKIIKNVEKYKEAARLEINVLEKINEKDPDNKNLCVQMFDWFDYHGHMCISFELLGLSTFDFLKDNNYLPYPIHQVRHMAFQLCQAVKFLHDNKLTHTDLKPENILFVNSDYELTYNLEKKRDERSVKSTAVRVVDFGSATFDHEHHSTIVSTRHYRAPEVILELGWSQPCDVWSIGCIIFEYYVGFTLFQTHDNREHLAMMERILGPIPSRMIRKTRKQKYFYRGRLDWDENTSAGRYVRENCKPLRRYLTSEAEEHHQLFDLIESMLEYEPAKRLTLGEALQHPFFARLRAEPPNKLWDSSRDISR

[18] = Efflux ratio of permeability in human Caco2 cells; assay type: ADME, cell-based; conditions: Caco-2
[19] = biological target: Serine/threonine-protein kinase Chk1 (Homo sapiens) (UniProt O14757); test: Inhibition of human CHK1 (1 to 476 residues) assessed as residual activity at 500 nM in presence of 33P-ATP by filter binding assay relative to control
[20] = biological target: Mitogen-activated protein kinase 9 (Homo sapiens) (UniProt P45984); test: Inhibition of human JNK2 (1 to 424 residues) assessed as residual activity at 500 nM in presence of 33P-ATP by filter binding assay relative to control
[21] = biological target: Dual specificity mitogen-activated protein kinase kinase 1 (Homo sapiens) (UniProt Q02750); test: Inhibition of human MKK1 (2 to 393 residues) assessed as residual activity at 500 nM in presence of 33P-ATP by filter binding assay relative to control
[22] = biological target: Proto-oncogene tyrosine-protein kinase LCK (Mus musculus) (UniProt P06240); test: Inhibition of mouse LCK (2 to 509 residues) assessed as residual activity at 500 nM in presence of 33P-ATP by filter binding assay relative to control
[23] = biological target: Mitogen-activated protein kinase kinase kinase 9 (Homo sapiens) (UniProt P80192); test: Inhibition of human MLK1 (132 to 413 residues) assessed as residual activity at 500 nM in presence of 33P-ATP by filter binding assay relative to control
[24] = biological target: Receptor tyrosine-protein kinase erbB-4 (Homo sapiens) (UniProt Q15303); test: Inhibition of human HER4 (706 to 991 residues) assessed as residual activity at 500 nM in presence of 33P-ATP by filter binding assay relative to control
Receptor tyrosine-protein kinase erbB-4 (Homo sapiens), sequence (Q15303 whole entry, the tested form may be a part): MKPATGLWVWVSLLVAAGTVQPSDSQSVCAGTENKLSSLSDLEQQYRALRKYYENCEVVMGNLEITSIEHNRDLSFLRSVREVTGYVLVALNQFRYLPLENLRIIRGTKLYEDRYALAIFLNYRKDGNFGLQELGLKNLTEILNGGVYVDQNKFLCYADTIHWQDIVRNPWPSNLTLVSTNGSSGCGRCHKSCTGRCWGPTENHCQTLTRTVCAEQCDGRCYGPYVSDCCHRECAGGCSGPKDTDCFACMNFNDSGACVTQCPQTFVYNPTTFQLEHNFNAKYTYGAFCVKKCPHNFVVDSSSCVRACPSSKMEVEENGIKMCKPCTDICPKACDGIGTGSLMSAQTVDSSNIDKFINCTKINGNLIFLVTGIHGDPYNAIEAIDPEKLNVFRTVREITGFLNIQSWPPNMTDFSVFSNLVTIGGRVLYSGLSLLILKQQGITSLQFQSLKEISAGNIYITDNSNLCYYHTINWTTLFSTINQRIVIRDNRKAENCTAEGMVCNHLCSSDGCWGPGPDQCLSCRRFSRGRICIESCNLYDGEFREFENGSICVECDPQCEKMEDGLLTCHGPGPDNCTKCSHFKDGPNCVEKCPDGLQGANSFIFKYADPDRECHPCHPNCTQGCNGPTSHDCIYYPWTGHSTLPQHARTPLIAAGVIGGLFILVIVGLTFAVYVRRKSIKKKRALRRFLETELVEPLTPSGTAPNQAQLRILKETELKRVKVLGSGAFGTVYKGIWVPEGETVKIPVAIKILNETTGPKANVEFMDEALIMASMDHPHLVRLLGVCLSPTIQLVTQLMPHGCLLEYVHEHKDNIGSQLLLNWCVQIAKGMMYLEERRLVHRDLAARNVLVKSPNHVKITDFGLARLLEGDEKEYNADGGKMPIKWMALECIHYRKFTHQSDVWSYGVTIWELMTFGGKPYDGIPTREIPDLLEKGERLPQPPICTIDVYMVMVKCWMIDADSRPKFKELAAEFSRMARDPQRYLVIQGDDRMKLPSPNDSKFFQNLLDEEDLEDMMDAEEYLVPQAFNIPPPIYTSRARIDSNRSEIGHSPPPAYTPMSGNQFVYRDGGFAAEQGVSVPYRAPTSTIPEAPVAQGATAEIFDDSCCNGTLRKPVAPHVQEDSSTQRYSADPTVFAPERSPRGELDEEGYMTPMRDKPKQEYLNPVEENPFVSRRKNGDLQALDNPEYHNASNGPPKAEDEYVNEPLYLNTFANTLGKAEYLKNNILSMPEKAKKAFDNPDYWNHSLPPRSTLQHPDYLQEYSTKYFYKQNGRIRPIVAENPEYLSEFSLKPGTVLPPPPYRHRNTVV

[25] = biological target: Maternal embryonic leucine zipper kinase (Homo sapiens) (UniProt Q14680); test: Inhibition of human MELK (2 to 651 residues) assessed as residual activity at 500 nM in presence of 33P-ATP by filter binding assay relative to control
[26] = biological target: Dual specificity protein kinase TTK (Homo sapiens) (UniProt P33981); test: Inhibition of human TTK (1 to 857 residues) assessed as residual activity at 500 nM in presence of 33P-ATP by filter binding assay relative to control

Activity [1]: 87%
Activity [2]: 115%
Activity [3]: 103%
Activity [4]: 99%
Activity [5]: 105%
Activity [6]: 107%
Activity [7]: 104%
Activity [8]: 104%
Activity [9]: 116%
Activity [10]: 100%
Activity [11]: 116%
Activity [12]: 9%
Activity [13]: 104%
Activity [14]: 106%
Activity [15]: 114%
Activity [17]: 76%
efflux ratio [18]: < 1
Activity [19]: 109%
Activity [20]: 79%
Activity [21]: 115%
Activity [22]: 85%
Activity [23]: 106%
Activity [24]: 60%
Activity [25]: 91%
Activity [26]: 117%
SMILES: Cc1cccc(-c2nc(N)sc2-c2ccc3ncccc3n2)c1
Activity [16]: 123%
